ChEMBL document CHEMBL1909046, “DrugMatrix in vitro pharmacology data”

Tests used:
B2 bradykinin receptor = molecular target: T1, B2 bradykinin receptor (Homo sapiens, UniProt P30411); format: cell membranes, Membrane; details: chem-1; further: in other assays of this panel Not Active means under 50% inhibition at 10 µM
T1 sequence (P30411 whole entry): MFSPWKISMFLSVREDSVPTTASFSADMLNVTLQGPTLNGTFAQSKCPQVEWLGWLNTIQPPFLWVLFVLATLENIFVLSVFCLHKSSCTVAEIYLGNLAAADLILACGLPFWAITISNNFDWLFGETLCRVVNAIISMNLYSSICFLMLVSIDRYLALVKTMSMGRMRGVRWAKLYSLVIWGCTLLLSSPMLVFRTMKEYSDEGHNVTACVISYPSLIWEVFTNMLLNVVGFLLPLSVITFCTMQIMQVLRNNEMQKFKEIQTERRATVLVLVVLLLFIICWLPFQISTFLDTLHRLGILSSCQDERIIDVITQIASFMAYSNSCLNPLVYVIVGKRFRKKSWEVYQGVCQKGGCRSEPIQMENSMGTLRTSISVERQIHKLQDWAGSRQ

[1] = DRUGMATRIX: Calcium Channel Type L, Benzothiazepine radioligand binding (ligand: [3H] Diltiazem); format: cell membranes, Rattus norvegicus, Wistar, Brain, Membrane; details: Not Active = under 50% inhibition at 10 µM
[2] = molecular target: 5-hydroxytryptamine receptor 4 (Cavia porcellus, UniProt O70528); format: cell membranes, Dunkin-Hartley, Striatum, Membrane; further: in other assays of this panel Not Active means under 50% inhibition at 10 µM
Sequence of 5-hydroxytryptamine receptor 4 (O70528 whole entry): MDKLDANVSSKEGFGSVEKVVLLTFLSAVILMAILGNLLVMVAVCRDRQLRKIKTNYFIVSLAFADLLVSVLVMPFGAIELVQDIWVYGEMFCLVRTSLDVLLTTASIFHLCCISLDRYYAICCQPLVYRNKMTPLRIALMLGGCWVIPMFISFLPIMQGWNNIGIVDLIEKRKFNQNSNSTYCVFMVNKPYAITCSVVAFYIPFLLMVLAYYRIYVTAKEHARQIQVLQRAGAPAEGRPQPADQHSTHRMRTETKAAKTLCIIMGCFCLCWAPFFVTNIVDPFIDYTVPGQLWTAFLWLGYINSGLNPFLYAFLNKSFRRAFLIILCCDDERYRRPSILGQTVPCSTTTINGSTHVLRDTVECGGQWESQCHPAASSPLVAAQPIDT

[3] = molecular target: C-C chemokine receptor type 2 (Homo sapiens, UniProt P41597); format: cell membranes, CHO-K1, Membrane; details: cho-k1; further: in other assays of this panel Not Active means under 50% inhibition at 10 µM
Sequence of C-C chemokine receptor type 2 (P41597 whole entry): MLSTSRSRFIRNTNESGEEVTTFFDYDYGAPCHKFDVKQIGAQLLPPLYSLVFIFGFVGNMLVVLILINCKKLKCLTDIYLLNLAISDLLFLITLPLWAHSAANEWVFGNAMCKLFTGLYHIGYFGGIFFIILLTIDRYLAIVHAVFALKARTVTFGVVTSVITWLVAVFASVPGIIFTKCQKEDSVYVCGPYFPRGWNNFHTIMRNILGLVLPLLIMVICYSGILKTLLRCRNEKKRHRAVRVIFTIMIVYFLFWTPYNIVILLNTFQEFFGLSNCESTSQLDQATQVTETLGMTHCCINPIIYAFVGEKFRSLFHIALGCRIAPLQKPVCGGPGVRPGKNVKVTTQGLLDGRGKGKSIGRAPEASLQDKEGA

[4] = molecular target: C-C chemokine receptor type 5 (Homo sapiens, UniProt P51681); format: cell membranes, Membrane; details: hek293; further: in other assays of this panel Not Active means under 50% inhibition at 10 µM
Sequence of C-C chemokine receptor type 5 (P51681 whole entry): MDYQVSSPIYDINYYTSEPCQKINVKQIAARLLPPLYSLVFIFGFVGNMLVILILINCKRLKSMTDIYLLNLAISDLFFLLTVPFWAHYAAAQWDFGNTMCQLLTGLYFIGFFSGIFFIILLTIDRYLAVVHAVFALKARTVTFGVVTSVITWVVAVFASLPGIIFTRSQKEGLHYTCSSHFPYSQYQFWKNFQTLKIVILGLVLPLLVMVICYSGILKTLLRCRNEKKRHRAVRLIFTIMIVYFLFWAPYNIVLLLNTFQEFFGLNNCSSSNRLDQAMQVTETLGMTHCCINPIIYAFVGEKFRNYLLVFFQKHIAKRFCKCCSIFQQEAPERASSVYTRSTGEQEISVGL

D(1A) dopamine receptor = D(1A) dopamine receptor (Homo sapiens, UniProt P21728); experiment: DRUGMATRIX: Dopamine D1 radioligand binding (ligand: [3H] SCH-23390); format: cell membranes, CHO, Membrane; details: cho; Not Active = under 50% inhibition at 10 µM
Sequence of D(1A) dopamine receptor (P21728 whole entry): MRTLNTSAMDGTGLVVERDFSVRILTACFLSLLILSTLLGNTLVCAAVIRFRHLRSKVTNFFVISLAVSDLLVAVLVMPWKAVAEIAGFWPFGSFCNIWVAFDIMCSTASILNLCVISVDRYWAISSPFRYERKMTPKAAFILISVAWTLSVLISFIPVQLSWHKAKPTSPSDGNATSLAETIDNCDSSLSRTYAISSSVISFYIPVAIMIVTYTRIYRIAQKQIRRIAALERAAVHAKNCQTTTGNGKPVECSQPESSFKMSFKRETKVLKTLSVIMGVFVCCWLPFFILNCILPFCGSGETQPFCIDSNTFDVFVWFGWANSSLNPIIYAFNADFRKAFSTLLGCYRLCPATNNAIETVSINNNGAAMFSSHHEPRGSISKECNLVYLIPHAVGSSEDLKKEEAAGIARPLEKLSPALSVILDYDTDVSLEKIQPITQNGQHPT

[5] = molecular target: Sodium-dependent dopamine transporter (Homo sapiens, UniProt Q01959); experiment: DRUGMATRIX: Dopamine Transporter radioligand binding (ligand: [125I] RTI-55); format: cell membranes, CHO-K1, Membrane; details: cho-k1; Not Active = under 50% inhibition at 10 µM
Sequence of Sodium-dependent dopamine transporter (Q01959 whole entry): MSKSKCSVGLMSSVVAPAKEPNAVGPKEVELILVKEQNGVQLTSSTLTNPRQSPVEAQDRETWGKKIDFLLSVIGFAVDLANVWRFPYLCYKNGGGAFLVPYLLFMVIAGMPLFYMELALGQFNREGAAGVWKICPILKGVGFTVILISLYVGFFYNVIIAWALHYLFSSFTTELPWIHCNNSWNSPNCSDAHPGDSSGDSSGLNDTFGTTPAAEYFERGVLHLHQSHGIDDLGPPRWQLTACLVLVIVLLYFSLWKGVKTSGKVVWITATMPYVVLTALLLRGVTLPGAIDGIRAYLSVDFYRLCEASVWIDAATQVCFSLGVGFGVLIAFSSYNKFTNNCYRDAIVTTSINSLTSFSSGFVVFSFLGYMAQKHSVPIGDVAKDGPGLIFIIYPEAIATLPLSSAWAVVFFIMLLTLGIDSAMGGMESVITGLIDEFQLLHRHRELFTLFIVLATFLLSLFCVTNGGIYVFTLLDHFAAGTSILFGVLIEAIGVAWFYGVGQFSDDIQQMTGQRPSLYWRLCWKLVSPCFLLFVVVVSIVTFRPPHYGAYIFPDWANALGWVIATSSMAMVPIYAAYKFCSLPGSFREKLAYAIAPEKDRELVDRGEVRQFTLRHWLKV

[6] = DRUGMATRIX: Glutamate, NMDA, Phencyclidine radioligand binding (ligand: [3H] TCP); format: cell membranes, Rattus norvegicus, Wistar, Cerebral cortex, Membrane; details: Not Active = under 50% inhibition at 10 µM
[7] = molecular target: T2, Muscarinic acetylcholine receptor M4 (Homo sapiens, UniProt P08173); format: cell membranes, CHO-K1, Membrane; details: cho-k1; further: in other assays of this panel Not Active means under 50% inhibition at 10 µM
T2 sequence (P08173 whole entry): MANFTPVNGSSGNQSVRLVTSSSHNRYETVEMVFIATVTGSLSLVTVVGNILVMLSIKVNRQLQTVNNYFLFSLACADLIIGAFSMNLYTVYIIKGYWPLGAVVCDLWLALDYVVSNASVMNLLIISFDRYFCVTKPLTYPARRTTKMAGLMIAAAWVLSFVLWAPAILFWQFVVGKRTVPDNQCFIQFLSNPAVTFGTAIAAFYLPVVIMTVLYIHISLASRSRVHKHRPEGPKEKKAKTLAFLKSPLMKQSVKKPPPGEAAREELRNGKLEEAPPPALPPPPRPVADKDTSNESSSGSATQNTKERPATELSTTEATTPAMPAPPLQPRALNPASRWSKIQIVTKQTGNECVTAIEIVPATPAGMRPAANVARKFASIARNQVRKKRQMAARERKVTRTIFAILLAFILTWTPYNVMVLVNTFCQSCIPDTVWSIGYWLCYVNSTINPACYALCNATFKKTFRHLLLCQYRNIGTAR

[8] = molecular target: Matrix metalloproteinase-9 (Homo sapiens, UniProt P14780); format: cell-based
Sequence of Matrix metalloproteinase-9 (P14780 whole entry): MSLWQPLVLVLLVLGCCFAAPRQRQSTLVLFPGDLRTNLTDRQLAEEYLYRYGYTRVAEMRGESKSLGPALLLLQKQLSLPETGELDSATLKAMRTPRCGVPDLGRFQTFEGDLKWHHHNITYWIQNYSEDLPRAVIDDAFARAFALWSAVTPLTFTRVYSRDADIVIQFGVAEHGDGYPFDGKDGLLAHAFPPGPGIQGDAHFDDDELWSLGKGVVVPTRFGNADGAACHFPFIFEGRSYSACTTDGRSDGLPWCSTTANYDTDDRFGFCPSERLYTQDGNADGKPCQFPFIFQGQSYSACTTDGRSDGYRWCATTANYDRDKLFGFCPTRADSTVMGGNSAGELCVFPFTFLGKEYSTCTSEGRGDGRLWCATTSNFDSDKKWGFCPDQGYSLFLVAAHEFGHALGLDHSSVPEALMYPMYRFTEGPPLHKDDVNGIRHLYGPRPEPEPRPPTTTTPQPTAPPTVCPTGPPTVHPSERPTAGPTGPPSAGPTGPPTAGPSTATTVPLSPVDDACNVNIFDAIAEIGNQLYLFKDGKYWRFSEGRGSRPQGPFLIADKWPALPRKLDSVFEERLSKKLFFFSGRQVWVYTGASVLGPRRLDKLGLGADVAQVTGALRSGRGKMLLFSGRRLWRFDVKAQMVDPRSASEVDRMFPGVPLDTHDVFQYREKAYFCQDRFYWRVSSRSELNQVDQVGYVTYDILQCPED

[9] = molecular target: T3, Receptor-type tyrosine-protein phosphatase C (Homo sapiens, UniProt P08575); set-up: species or system Escherichia coli
T3 sequence (P08575 whole entry): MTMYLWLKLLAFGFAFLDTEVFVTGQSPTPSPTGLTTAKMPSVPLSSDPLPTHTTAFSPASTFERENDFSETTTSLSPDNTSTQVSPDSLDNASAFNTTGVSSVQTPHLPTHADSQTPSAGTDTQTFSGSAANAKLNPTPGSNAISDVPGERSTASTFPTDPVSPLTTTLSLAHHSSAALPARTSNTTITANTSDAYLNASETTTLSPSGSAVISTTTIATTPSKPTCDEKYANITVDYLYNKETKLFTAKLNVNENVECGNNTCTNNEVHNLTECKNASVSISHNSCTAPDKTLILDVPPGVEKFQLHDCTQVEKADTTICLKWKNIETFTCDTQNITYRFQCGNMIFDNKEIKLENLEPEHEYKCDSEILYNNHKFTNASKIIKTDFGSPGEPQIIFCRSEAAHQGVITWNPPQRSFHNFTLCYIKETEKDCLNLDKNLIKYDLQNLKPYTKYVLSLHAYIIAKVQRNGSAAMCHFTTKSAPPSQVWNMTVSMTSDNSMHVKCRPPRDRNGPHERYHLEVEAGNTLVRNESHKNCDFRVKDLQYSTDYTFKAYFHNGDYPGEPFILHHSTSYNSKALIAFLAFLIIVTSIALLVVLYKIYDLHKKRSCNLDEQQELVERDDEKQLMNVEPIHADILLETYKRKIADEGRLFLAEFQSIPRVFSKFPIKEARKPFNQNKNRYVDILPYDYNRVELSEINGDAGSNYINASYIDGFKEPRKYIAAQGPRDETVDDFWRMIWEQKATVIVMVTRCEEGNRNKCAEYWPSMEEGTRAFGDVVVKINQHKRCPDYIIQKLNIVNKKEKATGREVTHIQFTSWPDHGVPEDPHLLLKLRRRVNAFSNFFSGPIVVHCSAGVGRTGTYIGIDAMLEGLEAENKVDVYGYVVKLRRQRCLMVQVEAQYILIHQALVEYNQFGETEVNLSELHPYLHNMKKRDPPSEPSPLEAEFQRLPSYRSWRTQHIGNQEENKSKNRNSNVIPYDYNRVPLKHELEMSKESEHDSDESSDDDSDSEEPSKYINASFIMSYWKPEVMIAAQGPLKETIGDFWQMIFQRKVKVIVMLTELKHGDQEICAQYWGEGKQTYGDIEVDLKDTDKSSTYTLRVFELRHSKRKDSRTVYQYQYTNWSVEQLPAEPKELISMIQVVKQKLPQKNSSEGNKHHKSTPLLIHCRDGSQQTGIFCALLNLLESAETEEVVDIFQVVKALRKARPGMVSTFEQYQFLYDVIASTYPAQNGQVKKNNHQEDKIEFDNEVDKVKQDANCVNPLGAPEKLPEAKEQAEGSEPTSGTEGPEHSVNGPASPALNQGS

Cytochrome P450 2E1 = Cytochrome P450 2E1 (Homo sapiens, UniProt P05181); details: bti-tn-5b1-4; further: in other assays of this panel Not Active means under 50% inhibition at 10 µM
Sequence of Cytochrome P450 2E1 (P05181 whole entry): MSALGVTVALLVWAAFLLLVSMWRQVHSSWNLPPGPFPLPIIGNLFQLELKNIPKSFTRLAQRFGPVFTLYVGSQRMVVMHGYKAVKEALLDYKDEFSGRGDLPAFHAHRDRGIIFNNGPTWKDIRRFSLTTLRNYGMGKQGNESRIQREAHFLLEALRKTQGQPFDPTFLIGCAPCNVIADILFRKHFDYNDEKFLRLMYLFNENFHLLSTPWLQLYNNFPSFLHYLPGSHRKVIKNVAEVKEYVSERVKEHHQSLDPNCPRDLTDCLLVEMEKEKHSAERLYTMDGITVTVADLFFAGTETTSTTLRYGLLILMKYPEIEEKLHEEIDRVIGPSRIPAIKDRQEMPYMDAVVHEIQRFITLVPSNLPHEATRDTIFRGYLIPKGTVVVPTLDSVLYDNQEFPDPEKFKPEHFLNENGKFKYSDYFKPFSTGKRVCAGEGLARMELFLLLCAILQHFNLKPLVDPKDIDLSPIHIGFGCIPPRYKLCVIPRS

Estrogen receptor beta = Estrogen receptor beta (Homo sapiens, UniProt Q92731); details: sf9; further: in other assays of this panel Not Active means under 50% inhibition at 10 µM
Sequence of Estrogen receptor beta (Q92731 whole entry): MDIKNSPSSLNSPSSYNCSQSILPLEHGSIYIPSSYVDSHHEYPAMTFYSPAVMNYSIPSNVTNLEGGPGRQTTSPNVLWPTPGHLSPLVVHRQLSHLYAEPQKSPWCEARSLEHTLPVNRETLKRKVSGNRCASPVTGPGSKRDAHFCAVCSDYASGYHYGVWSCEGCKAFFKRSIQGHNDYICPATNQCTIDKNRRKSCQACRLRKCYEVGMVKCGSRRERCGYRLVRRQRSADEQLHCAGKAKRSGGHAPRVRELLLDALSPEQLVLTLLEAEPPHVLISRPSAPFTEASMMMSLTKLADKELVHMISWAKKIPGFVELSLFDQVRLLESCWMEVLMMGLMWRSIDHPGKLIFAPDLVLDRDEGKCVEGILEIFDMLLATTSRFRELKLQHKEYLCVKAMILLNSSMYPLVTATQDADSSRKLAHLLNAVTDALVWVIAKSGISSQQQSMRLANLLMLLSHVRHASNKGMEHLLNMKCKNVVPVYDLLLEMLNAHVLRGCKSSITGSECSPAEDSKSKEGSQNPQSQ

COc1c(N2CCNC(C)C2)c(F)cc2c(=O)c(C(=O)O)cn(C3CC3)c12 (stereo unspecified) [GATIFLOXACIN]
Not Active: IC50 (B2 bradykinin receptor) | IC50 [1] | Ki [1] | IC50 [2] | IC50 [3] | IC50 [4] | IC50 (D(1A) dopamine receptor) | IC50 [5] | IC50 [6] | Ki [6] | IC50 [7] | IC50 [8] | IC50 [9] | IC50 (Cytochrome P450 2E1) | Ki (Cytochrome P450 2E1) | IC50 (Estrogen receptor beta)

CC1(C)[C@@H](O[C@H]2O[C@H](C(=O)O)[C@@H](O)[C@H](O)[C@H]2O[C@@H]2O[C@H](C(=O)O)[C@@H](O)[C@H](O)[C@H]2O)CC[C@]2(C)[C@H]3C(=O)C=C4[C@@H]5C[C@@](C)(C(=O)O)CC[C@]5(C)CC[C@@]4(C)[C@]3(C)CC[C@@H]12 [GLYCYRRHIZIN]
Not Active: IC50 (B2 bradykinin receptor) | IC50 [1] | Ki [1] | IC50 [2] | IC50 [3] | IC50 [4] | IC50 (D(1A) dopamine receptor) | IC50 [5] | IC50 [6] | Ki [6] | IC50 [7] | IC50 [8] | IC50 [9] | IC50 (Cytochrome P450 2E1) | Ki (Cytochrome P450 2E1) | IC50 (Estrogen receptor beta)

COC1=CC(=O)C[C@@H](C)[C@]12Oc1c(Cl)c(OC)cc(OC)c1C2=O [GRISEOFULVIN]
Not Active: IC50 (B2 bradykinin receptor) | IC50 [1] | Ki [1] | IC50 [2] | IC50 [3] | IC50 [4] | IC50 (D(1A) dopamine receptor) | IC50 [5] | IC50 [6] | Ki [6] | IC50 [7] | IC50 [8] | IC50 [9] | IC50 (Cytochrome P450 2E1) | Ki (Cytochrome P450 2E1) | IC50 (Estrogen receptor beta)

C/C=C1\[C@H]2C=C(C)C[C@]1(N)c1ccc(=O)[nH]c1C2 [HUPERZINE A]
Not Active: IC50 (B2 bradykinin receptor) | IC50 [1] | Ki [1] | IC50 [2] | IC50 [3] | IC50 [4] | IC50 (D(1A) dopamine receptor) | IC50 [5] | IC50 [6] | Ki [6] | IC50 [7] | IC50 [8] | IC50 [9] | IC50 (Cytochrome P450 2E1) | Ki (Cytochrome P450 2E1) | IC50 (Estrogen receptor beta)

NS(=O)(=O)c1cc2c(cc1Cl)NCNS2(=O)=O [HYDROCHLOROTHIAZIDE]
Not Active: IC50 (B2 bradykinin receptor) | IC50 [1] | Ki [1] | IC50 [2] | IC50 [3] | IC50 [4] | IC50 (D(1A) dopamine receptor) | IC50 [5] | IC50 [6] | Ki [6] | IC50 [7] | IC50 [8] | IC50 [9] | IC50 (Cytochrome P450 2E1) | Ki (Cytochrome P450 2E1) | IC50 (Estrogen receptor beta)

CN1CCC[C@H]1c1cccnc1 [NICOTINE]
Not Active: IC50 (B2 bradykinin receptor) | IC50 [1] | Ki [1] | IC50 [2] | IC50 [3] | IC50 [4] | IC50 (D(1A) dopamine receptor) | IC50 [5] | IC50 [6] | Ki [6] | IC50 [7] | IC50 [8] | IC50 [9] | IC50 (Cytochrome P450 2E1) | Ki (Cytochrome P450 2E1) | IC50 (Estrogen receptor beta)
